Laboratory results published in patent publication US11883430B2, “CD38-NAD+ regulated metabolic axis in anti-tumor immunotherapy” (MUSC FOUNDATION FOR RESEARCH DEVELOPMENT, priority 2016, dated 2024).

How the values were obtained:
B16-F10 melanoma = assay: Adoptive T cell transfer, s.c. B16-F10 melanoma in C57BL/6 mice, tumor growth; format: in vivo, mouse; settings: TRP-1 Th1/17 differentiated with DON 3 μM vs DMSO, 0.5×10^6 cells (FIG. 3P)
Description: Adoptive T cell protocol: B16-F10 or B16-F10-A2^+ mouse melanoma tumor cells (2.5×10^6) were injected subcutaneously (s.c.) into left flank of 8-10 weeks old C57BL/6 or HLA-A2^+ (or HLA-A2^+-RAG^−/−) mice respectively. After 9 days of tumor establishment, recipient mice were injected (i.p) with cyclophosphamide (4 mg/mice) before adoptively transferring (i.v) either h3T (CD4^+Vβ12^+) or TRP-1 (CD4^+Vβ14^+) Th1, Th17, Th1/17 cells on day 10. Similarly, Pmel (CD8^+Vβ13^+) and TCR-I (CD8^+Sv40 antigen specific) Tc1, Tc17 and Tc1/17 cells were adoptively transferred (i.v) into either 9 days established B16-F10 tumor bearing mice or TRAMP (spontaneously develop prostate tumor) respectively. For in vivo neutralization of IFNγ and IL17, neutralizing antibody to IFNγ and IL17 or matched isotype antibody was injected (100 μg/mouse; i.p.) in tumor bearing mice following adoptive transfer of T cells. In some experiments, tumor bearing mice received anti-CD38 antibody (50 μg/mouse; i.p.) after adoptive TRP-1 Th0 cells transfer. Recipient mice were given IL2 (50,000 U/mouse; i.p) for 3 consecutive days after ACT.

Th1/17 cells [1] = assay: Intracellular cytokine (IFNγ, IL17) flow cytometry after PMA and ionomycin; format: cell-based, mouse
Text: T cell differentiation: Naïve CD4^+ T cells were purified from the total splenocytes of 6-9 weeks old WT (C57BL/6) and KO (Foxo1^fl/flLck^cre, Sirt1^fl/flCD4^cre, CD38KO) mice using CD4^+ T cell isolation kit (Miltenyi Biotec) according to manufacturer's protocol. Total splenocytes from 6-9 weeks old TCR transgenic mouse TRP-1 (bears class-II restricted CD4^+ T cells) or Pmel (bears class-I restricted CD8^+ T cells) or TCR-I (bears class-I restricted CD8^+ T cells) were also used. Within experiments mice were age and sex matched. Purified naïve CD4^+ T cells or total splenocytes were differentiated to Th1 or Tc1 (10 ng/ml IL12, 50 U/ml IL2 and 10 μg/ml anti-IL4), Th17 or Tc17 (3 ng/ml TGFβ, 25 ng/ml IL6, 10 μg/ml anti-IL4 and 10 μg/ml anti-IFNγ), Th1/17 or Tc1/17 (20 ng/ml IL1β, 25 ng/ml IL6, 10 ng/ml IL12, 20 ng/ml IL23, 400 pg/ml TGFβ, 10 μg/ml anti-IL4, 5 μg/ml anti-IFNγ), iTreg (5 ng/ml TGFβ, 100 IU/ml IL2, 10 μg/ml anti-IL4 and 10 μg/ml anti-IFNγ or Th0 (50 IU/ml IL2) in presence of plate bound anti-CD3 (5 μg/ml) and anti-CD28 (5 μg/ml). For TRP-1, gp100 or Sv40 specific generation of different Th or Tc subsets, total splenocytes from either TRP-1, Pmel or TCR-I TCR transgenic mice were stimulated with 1 μg/ml respective peptides in presence of above-mentioned polarizing conditions. T cells were differentiated for three days in IMDM media supplemented with 10% FCS, 4 mM L-glutamine, 100 U/ml penicillin, 100 μg/ml streptomycin, 55 μM beta-mercaptoethanol under 7% CO2, atmospheric oxygen at 37° C. in a humidified incubator. For evaluation of intracellular cytokines by flow cytometry, T cells were re-stimulated with PMA (500 ng/ml) and Ionomycin (500 ng/ml) for 4 hr in presence of Glogi inhibitors. […]
Flow cytometry: Staining for cell surface markers was performed by incubating cells with antibody at 1:200 dilutions in FACS buffer (0.1% BSA in PBS) for 30 min at 4° C. […] Samples were acquired on LSRFortessa and analysed with FlowJo software (Tree Star, OR).

Th1/17 cells [2] = assay: Viable cells by FACS live/dead dye staining; format: cell-based, mouse; settings: cultured in presence of DON 3 μM; compared to Th1 or Th17 cell (FIG. 11H)
Description: FIGS. 11A-11L: Metabolic commitment of Th1, Th17 and Th1/17 cells (see FIGS. 3-4). (A-C) In vitro differentiated murine Th1, Th17 and Th1/17 cells were used for determining: (A) intracellular expression of various glycolytic enzymes, (B) cell surface expression of different amino acid transporters, and (C) intracellular expression of glutaminolytic enzymes by flow cytometry. Data are representative of three independent experiments with similar results. (D) Western blot analysis determined the protein level of various glutamine transporters and glutaminolytic enzymes in in vitro differentiated Th1, Th17 and Th1/17 cells. β-actin was used as a loading control. Data are representative of two independent experiments with similar results. (E-F) Purified CD4^+ T cells were differentiated to Th1, Th17 and Th1/17 cells either in presence or absence of 2DG (1 mM) or DON (3 μM) and characterized for: (E) intracellular cytokine secretion after restimulating them with PMA and ionomycin for 4 hr, (F) determining the frequency of cells that were IFNγ^+, IL17^+ or IFNγ^+IL17^+ in each treatment groups and presented using scatter plot. Statistical comparison between treated and untreated groups are indicated. […] (I) Purified CD4^+ T cells were differentiated into Th1, Th17 and Th1/17 cells and intracellular metabolites were measured using mass spectrometry. […]

Th1/17 cells [3] = assay: Glutamine uptake assay (radiolabelled glutamine); format: cell-based, mouse; settings: DON pre-treatment, different conc. (FIG. 3O)
Description: Glutamine uptake assay: Ex vivo programmed Th cell subsets (1×10^6 cells) were starved in glutamine free RPMI-1640 media (Thermo Fisher Scientific, Cat #21870-076) for 15 min before incubated with L-2,3,4-[^3H] glutamine (0.5 mCi, PerkinElmer) for 10 min at room temperature. Cells were lysed in 500 μl of lysis buffer (Sigma-Aldrich, St. Louis, MO) and radioactivity was measured by liquid scintillation.

NAD+ = assay: Intracellular NAD+ level; format: cell-based, mouse; settings: Th1/17 differentiated with 2DG 1 mM, DON 3 μM or FK866 10 nM (FIGS. 11K, 11L)
Description: NAD^+, Sirt1 activity and Foxo1 activity assay: Intracellular NAD^+ level in T cells were measured spectrophotometrically following the manufacturer's protocol (Cayman chemical, Ann Arbor, MI). Using equal amounts of nuclear protein extracted by NE-PER Nuclear and Cytoplasmic Extraction Reagents (Thermo Fisher Scientific, Waltham, MA), Sirt1 activity (Universal Sirt1 Activity Assay Kit, Abcam, Cambridge, MA) and Foxo1 activity (FKHR transcription Factor Assay Kit, Active Motif, Carlsbad, CA) were determined as per manufacturer's protocol.

[4] = test system: B16-F10-HLA-A2+ murine melanoma; assay: Adoptive T cell transfer, s.c. B16-F10-HLA-A2+ melanoma, tumor growth; format: in vivo, mouse; settings: Th1/17 differentiated ex vivo with FK866 or Ex527 vs untreated/vehicle (FIGS. 4E, 5F)
Th1 cells = assay: Intracellular cytokine (IFNγ, IL17) flow cytometry after PMA and ionomycin; format: cell-based, mouse; settings: Th1 subsets (FIGS. 12A and 12B)
Description: FIGS. 12A-12D: Loss of Sirt1 expression and NAD+ levels on Th1/17 cell phenotype and function (see FIG. 5). (A) Purified CD4^+ T cells from C57BL/6 were used to differentiate to Th1/17 cells either alone or in the presence of Ex527, a pharmacological inhibitor of Sirt1. Cells were then restimulated with PMA and ionomycin for 4 hr in presence of golgi block to stain for intracellular accumulation of cytokines IFNγ and IL17. (B) Th1 cells were cultured either in presence or absence of NAD+ inhibitor FK866 (10 nM) and intracellular staining was performed for IFNγ and IL17. Data was acquired using FACS and analysis was carried out using FlowJo software. (C-D) Purified splenic CD4^+ T cells from either C57BL/6 WT or Sirt1fl/flCD4Cre (Sirt1KO) mouse were used to ex vivo program for Th1/17 cells. RNA was prepared and quantitative PCR analysis was performed for the expression of various glycolysis (C) and glutaminolysis (D) associated genes in either WT or Sirt1KO Th1/17 cells. Data in section A-D are representative of three independent experiments.
T cell differentiation: Naïve CD4^+ T cells were purified from the total splenocytes of 6-9 weeks old WT (C57BL/6) and KO (Foxo1^fl/flLck^cre, Sirt1^fl/flCD4^cre, CD38KO) mice using CD4^+ T cell isolation kit (Miltenyi Biotec) according to manufacturer's protocol. […]

Th1/17 cells [5] = assay: qPCR gene expression in Th1/17 cells; format: cell-based, mouse; settings: Th1/17 differentiated with FK866 10 nM or Ex527 (FIGS. 4D, 5D)
Description: Real-time quantitative-PCR: Total RNA was extracted from pellets of the indicated T cell subsets (2×10^6 cells) using Trizol reagent (Life technologies, Grand Island, NY). cDNA was generated from 1 μg total RNA using iScript cDNA Synthesis Kit (BioRad, Hercules, CA). SYBR Green incorporation quantitative real-time PCR was performed using a SYBR Green mix (Biorad, Hercules, CA) in the CFX96 Detection System (BioRad, Hercules, CA). Expression of different genes was quantified relative to Actb.

Th1/17 cells [6] = assay: Global acetylation of nuclear protein, western blot; format: cell-based, mouse; settings: Nampt inhibitor FK866 treatment (FIG. 6A, FIG. 13A)
Description: Immunoblotting and Immunoprecipitation of Foxo1: For evaluation of global protein acetylation, cells were lysed using NE-PER Nuclear and Cytoplasmic Extraction Reagents (Thermo Fisher Scientific, Waltham, MA) and nuclear fraction was isolated according to the manufacturer's protocol. Equal amounts of nuclear protein (20 μg) were separated by 4%-12% SDS-PAGE and then transferred to nitrocellulose membranes. The membranes were probed with anti-Acetyl-Lysine antibody (Cell Signaling Technologies, Danvers, MA) followed by incubation with secondary antibody (HRP-conjugated goat anti-rabbit IgG at 1:3000 dilutions) for overnight at 4° C. Pre-stained molecular weight and magic markers were run in parallel to identify the molecular weight of proteins. For chemiluminescent detection, the membranes were treated with enhanced chemiluminescent reagent, and the signal was monitored using a Biorad Versadoc imaging system (Biorad, Hercules, CA). Same membrane was stripped with stripping buffer (Bioland Scientific, Paramount, CA) according to manufacturer's protocol and re-probed with antibody specific to histone H3 (Cell Signaling Technologies, Danvers, MA) as reference control.

Foxo1 = assay: Confocal imaging of Foxo1 localization in Th17 and Th1/17 cells; format: cell-based, mouse; settings: Th17 and Th1/17 cells programmed with SC-79 0.5 μg/ml (FIG. 13H)

SMILES	anti-tumor response of DON pre-treated Th1/17 cells upon ACT (B16-F10 melanoma)	IFNγ+IL-17+ secreting fraction (Th1/17 cells [1]; DON 3 μM in differentiation media from day 0 (FIGS. 11E, 11F))	viability of Th1/17 cells (Th1/17 cells [2])	uptake of radio labelled glutamine (Th1/17 cells [3])	NAD+ levels in Th1/17 cells (NAD+)	tumor control by inhibitor-treated Th1/17 cells upon adoptive transfer [4]	frequency of IL17+IFNγ+ population (Th1/17 cells [1]; FK866 10 nM in differentiation media from day 0 (FIG. 4C))	IFNγ secreting fraction (Th1 cells)	expression of stemness-associated genes (Th1/17 cells [5])	reduced global acetylation of Th1/17 cells (Th1/17 cells [6])	nuclear Foxo1 levels (Foxo1)
[N-]=[N+]=CC(=O)CC[C@H](N)C(=O)O [DON, 6-Diazo-5-oxo-L-norleucine]	significant attenuation of the anti-tumor response upon ACT	reduction in IFNγ^+IL-17^+ secreting fraction	reduced by two-folds	reduced the uptake of radio labelled glutamine in a dose dependent manner	significantly reduced NAD^+ levels	–	–	–	–	–	–
O=C(/C=C/c1cccnc1)NCCCCC1CCN(C(=O)c2ccccc2)CC1 [FK866]	–	–	–	–	depletion of NAD^+	failed to exhibit potent tumor control upon adoptive transfer	two-fold decrease in the frequency of IL17^+IFNγ^+ population	No significant difference	reduced expression of stemness-associated molecules such as Tcf7, Bcl6, and β-catenin	reversed to a certain extent	–
CCOC(=O)C1=C(N)Oc2ccc(Cl)cc2C1C(C#N)C(=O)OCC (stereo not drawn) [SC-79]	–	–	–	–	–	–	–	–	–	–	reduced nuclear Foxo1 levels
